The structures appear in SMILES notation. ± gives the expanded uncertainty stated by the source.

The conditions of this series: Crystal 2; AC calorimetry.

Regarding `O=P([O-])(O)P(=O)([O-])O.[NH4+].[NH4+]` [diammonium hypodiphosphate], the Triple point temperature amounted to 177.5 ± 0.1 K.
